Results: patent US20240423981A1, “TREATMENT OF HCM WITH PYRIMIDINEDIONE COMPOUNDS” (MyoKardia, Inc., priority 2017, published 2024)
“Also recorded” adds a separate entry of the source.

Columns and labels:
healthy men = experiment: Study Compound 1-002: single ascending-dose (SAD) trial in healthy volunteers; format: in vivo, human
Protocol: (§1) Three clinical studies have investigated the safety and tolerability of Compound 1 to date; conduct of 2 studies has completed and 1 study is ongoing. A double-blind, placebo-controlled, single ascending-dose study (SAD) (Compound 1-002) was conducted in healthy men. Subjects received single doses ranging from 1 mg to 48 mg. Conduct of an open-label sequential-group SAD study in subjects with clinically stable HCM (Compound 1-001) is also complete; single doses of up to 144 mg were administered. In addition, a double-blind, placebo-controlled, multiple ascending-dose (MAD) study (Compound 1-003) is being conducted in which healthy adult subjects have received multiple doses of Compound 1 up to 25 mg once daily (QD) for up to 28 days.
In Study Compound 1-002, single doses from 1 mg to 48 mg were administered as an oral suspension to healthy men. […] Single doses of ≥12 mg of Compound 1 were associated with detectable reductions in LV contractility from baseline as assessed by 3 independent echocardiographic measures (left ventricular ejection fraction [LVEF], LV fractional shortening (LVFS), and LVOT velocity time integral [VTI]). At the highest dose studied in healthy subjects (48 mg), mean reduction in LVEF at any time point was −6% relative to baseline.

[1] = system: subjects with symptomatic HCM and LVOT obstruction; experiment: Phase 2 open-label pilot study Pioneer-HCM-A (Cohort A); format: in vivo, human; settings: for Lateral e′ Week 12: baseline 6.9 ± 1.9; for E/e′ Week 12: baseline 12.9 ± 3.3
From the text: This is a phase 2 open-label pilot study to evaluate the efficacy, PK, PD, safety, and tolerability of Compound 1 in subjects with symptomatic HCM and LVOT obstruction. Approximately 10 adult subjects with symptomatic HCM, a resting LVOT gradient ≥30 mm Hg, and post-exercise peak LVOT gradient ≥50 mm Hg will be enrolled. The study will have a 12-week treatment phase and a 4-week washout phase (FIG. 3).
At Screening, subjects will undergo transthoracic echocardiography (TTE) in the supine or left lateral decubitus position. In addition to a standardized complete TTE, both resting instantaneous peak LVOT gradient (baseline) and provoked peak LVOT gradient will be collected. Subjects will then undergo a standard symptom-limited exercise test (hemodynamic stress echocardiography). Subjects will be assessed systematically for symptoms of dyspnea and/or angina. Instantaneous peak LVOT gradient will be assessed immediately post-exercise by TTE.
On Day 1, resting TTE will be performed, blood samples will be drawn for PK, and subjects will have an assessment of pVO2, VE/VCO2, and other variables via cardiopulmonary exercise testing (CPET). After CPET, subjects will be dosed with open-label oral Compound 1 at the investigational site and will be observed for at least 1 hour after dosing, with assessment of vital signs and ECGs at 1 hour postdose. Subjects will then be supplied with Compound 1 sufficient for QD dosing at home.
Subjects will be evaluated at the investigational site at Weeks 1, 2, 3, 4, 5, 6, 7, 8, 12, and 16. At each of these visits, resting TTE will be performed and blood samples will be drawn for PK. On study visit days, study medication will be administered at the investigational site in order to collect blood samples for PK about 2 hours prior to dosing. At Weeks 4, 12, and 16, hemodynamic stress echocardiography will be performed and peak LVOT gradient will be assessed. CPET will be conducted between Weeks 10 and 12 (inclusive).
The Compound 1 starting dose will be 10 mg for subjects who weigh […] 60 kg and 15 mg for subjects who weigh >60 kg. At the end of Week 4 (Day 28), each subject's LVEF will be evaluated, and the subject's dose may be increased, decreased, or remain unchanged based on the predetermined criteria in Table 6, in consultation between the investigator and the medical monitor. If Compound 1 plasma concentration exceeds 750 ng/mL at Week 2, no dose increase is allowed, regardless of LVEF data at Week 4; however, dose decrease per LVEF data is allowed in this circumstance. The subject will subsequently receive that dose from Week 5 through Week 12.
The following results were obtained generally following the procedures described in Example 3. Each subject in the following trials discontinued β-blocker, calcium-channel blocker, and/or disopyramide therapy at least 14 days prior to the screening visit.

smooth muscle myosin = smooth muscle myosin (Homo sapiens, UniProt P35749); experiment: Biochemical activity against smooth muscle myosin
smooth muscle myosin, sequence (P35749 whole entry): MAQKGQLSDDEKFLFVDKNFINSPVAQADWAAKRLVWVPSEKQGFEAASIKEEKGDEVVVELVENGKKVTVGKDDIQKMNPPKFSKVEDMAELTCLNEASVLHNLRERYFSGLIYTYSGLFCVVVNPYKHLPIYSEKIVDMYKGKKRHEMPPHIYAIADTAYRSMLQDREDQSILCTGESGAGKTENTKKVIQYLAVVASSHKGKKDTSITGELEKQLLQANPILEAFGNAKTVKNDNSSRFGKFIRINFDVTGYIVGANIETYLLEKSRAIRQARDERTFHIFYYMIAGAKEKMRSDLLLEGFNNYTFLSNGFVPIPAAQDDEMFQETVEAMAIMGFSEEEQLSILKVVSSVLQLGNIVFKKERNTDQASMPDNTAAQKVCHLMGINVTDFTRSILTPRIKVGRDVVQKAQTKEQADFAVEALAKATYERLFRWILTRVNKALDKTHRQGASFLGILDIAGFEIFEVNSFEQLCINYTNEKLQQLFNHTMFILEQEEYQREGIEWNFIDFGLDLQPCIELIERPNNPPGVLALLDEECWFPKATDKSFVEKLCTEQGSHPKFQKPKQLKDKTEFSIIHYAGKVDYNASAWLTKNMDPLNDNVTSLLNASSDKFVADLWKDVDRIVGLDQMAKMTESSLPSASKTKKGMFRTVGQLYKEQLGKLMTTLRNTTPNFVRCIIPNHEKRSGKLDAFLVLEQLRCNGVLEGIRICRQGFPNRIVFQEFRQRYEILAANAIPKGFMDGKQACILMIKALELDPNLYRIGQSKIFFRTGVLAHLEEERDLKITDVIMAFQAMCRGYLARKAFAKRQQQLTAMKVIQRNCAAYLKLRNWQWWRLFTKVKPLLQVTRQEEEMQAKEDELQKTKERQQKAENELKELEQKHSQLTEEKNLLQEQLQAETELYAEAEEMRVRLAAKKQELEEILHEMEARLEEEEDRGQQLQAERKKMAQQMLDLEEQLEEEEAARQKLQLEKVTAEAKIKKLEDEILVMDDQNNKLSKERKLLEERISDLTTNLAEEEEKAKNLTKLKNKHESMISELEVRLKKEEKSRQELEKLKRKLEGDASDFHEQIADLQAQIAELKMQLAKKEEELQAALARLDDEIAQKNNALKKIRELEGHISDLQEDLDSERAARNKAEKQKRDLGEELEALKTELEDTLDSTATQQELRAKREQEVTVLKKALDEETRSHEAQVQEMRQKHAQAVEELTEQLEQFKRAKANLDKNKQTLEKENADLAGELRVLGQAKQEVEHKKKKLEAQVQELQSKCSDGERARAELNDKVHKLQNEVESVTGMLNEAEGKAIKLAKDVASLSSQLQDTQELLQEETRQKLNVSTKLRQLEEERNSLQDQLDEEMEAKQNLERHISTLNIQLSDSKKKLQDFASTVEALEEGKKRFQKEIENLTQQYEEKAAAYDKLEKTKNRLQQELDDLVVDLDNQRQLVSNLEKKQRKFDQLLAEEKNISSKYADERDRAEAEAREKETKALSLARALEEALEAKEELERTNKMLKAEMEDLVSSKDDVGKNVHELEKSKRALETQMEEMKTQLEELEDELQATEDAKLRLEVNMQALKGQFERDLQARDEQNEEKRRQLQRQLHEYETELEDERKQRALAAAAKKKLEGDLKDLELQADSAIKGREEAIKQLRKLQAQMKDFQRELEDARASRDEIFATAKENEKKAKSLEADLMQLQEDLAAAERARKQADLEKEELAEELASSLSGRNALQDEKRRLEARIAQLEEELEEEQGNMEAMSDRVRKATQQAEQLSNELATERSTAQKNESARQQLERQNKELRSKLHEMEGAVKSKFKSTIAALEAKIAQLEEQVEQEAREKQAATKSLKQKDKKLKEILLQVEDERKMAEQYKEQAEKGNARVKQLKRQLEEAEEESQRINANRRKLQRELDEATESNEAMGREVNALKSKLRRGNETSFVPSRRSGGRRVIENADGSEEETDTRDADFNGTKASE
smooth muscle myosin, sequence (P60660 whole entry partner): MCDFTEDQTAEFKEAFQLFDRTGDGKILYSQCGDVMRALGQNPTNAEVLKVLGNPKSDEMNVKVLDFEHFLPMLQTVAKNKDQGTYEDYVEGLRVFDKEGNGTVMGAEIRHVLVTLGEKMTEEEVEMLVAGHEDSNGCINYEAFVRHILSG
smooth muscle myosin, sequence (P24844 whole entry partner): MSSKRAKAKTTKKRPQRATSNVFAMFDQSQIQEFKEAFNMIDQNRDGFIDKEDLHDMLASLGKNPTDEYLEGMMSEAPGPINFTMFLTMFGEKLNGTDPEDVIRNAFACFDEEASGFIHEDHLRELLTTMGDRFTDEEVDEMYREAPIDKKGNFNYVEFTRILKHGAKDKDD

[2] = system: healthy volunteers and HCM patients; experiment: Phase 1 program summary (three Phase 1 studies); format: in vivo, human
Protocol: as §1

[3] = Cohort A (10-15 mg/day), N = 10, mean ± SD
[4] = Cohort A, baseline to Week 12, n 10

CC(C)n1c(=O)cc(N[C@@H](C)c2ccccc2)[nH]c1=O [Compound 1, (S)-3-Isopropyl-6-((1-phenylethyl)amino) pyrimidine-2, 4(1H,3H)-dione]
Responders % (healthy men; 12 mg single dose cohort): 50% | Responders n (healthy men; 12 mg single dose cohort): 3/6 | Responders % (healthy men; 24 mg single dose cohort): 83% | Responders n (healthy men; 24 mg single dose cohort): 5/6 | Responders % (healthy men; 48 mg single dose cohort): 100% | Responders n (healthy men; 48 mg single dose cohort): 6/6 | mean reduction in LVEF at any time point relative to baseline (healthy men; 48 mg single dose, healthy subjects): −6% | single dose associated with detectable reductions in LV contractility from baseline (healthy men; 3 echocardiographic measures (LVEF, LVFS, LVOT VTI), healthy men): ≥ 12 mg | changes in systolic blood pressure or heart rate (healthy men; any dose level 1 mg to 48 mg): No changes in systolic blood pressure (BP) or heart rate (HR) were detected | incidence of treatment-emergent AEs versus dose (healthy men; single doses 1 mg to 48 mg): did not appear to increase with dose | tolerability (healthy men; single doses 1 mg to 48 mg, oral suspension, healthy men): well tolerated, with no serious adverse events (SAEs), deaths, or withdrawals from study due to adverse events (AEs) reported | LV filling pressure and diastolic wall stress ([1]; 15 mg/day, oHCM patients): improvement in LV filling pressure (reduced E/e′) and diastolic wall stress (reduced NTpro-BNP) | LVOT gradient ([1]; 15 mg/day, oHCM patients): eliminates LVOT gradient | resting LV systolic function ([1]; 15 mg/day, oHCM patients): decreases resting LV systolic function | resting LVOT gradient ([1]; 10, 15 or 20 mg, weeks 0 to 12): abolished as early as week 1 in most subjects and by week 2 in all subjects | change in LVEF (stress ejection fraction) ([1]; 10 or 15 mg, weeks 0, 4 and 12): minimal change | stress LVOT gradient ([1]; 10 or 15 mg, weeks 0, 4 and 12): abolished | Resting LVEF Week 12 ([1]; Cohort A (10-15 mg/day), LVEF N = 4, mean ± SD, baseline 70 ± 6): 54 ± 12% | Post-exercise LVEF Week 12 ([1]; Cohort A (10-15 mg/day), LVEF N = 4, mean ± SD, baseline 76 ± 5): 60 ± 22% | Septal e′ Week 12 ([1]; Cohort A (10-15 mg/day), N = 10, mean ± SD, baseline 5 4 ± 1 6): 6.4 ± 1.5 cm/s | Mean e′ Week 12 ([1]; Cohort A (10-15 mg/day), N = 10, mean ± SD, baseline 5.7 ± 1.2): 7.4 ± 1.6 cm/s | Lateral e′ Week 12 [1, 3]: 8.8 ± 1.6 cm/s | E/e′ Week 12 [1, 3]: 9.1 ± 2.1 | Resting Gradient Week 12 ([1]; Cohort A (10-15 mg/day), N = 10, mean ± SD, baseline 68 ± 34): 14 ± 25 mm Hg | Post-exercise Gradient Week 12 ([1]; Cohort A (10-15 mg/day), N = 10, mean ± SD, baseline 125 ± 60): 19 ± 13 mm Hg | NT-pro BNP Week 12 ([1]; Cohort A (10-15 mg/day), N = 10, mean ± SD, baseline 939 ± 647): 235 ± 417 pg/mL | E/e′ Delta ([1]; Cohort A, baseline to Week 12, n 8): −3.6 ± 3.7 | Lateral e′ Delta ([1]; Cohort A, baseline to Week 12, n 9): 1.6 ± 1.9 cm/s | Dyspnea score Delta [1, 4]: −3.1 ± 1.4 | LA Vol (index) Delta [1, 4]: 1 ± 7 mL/m^2 | NT-proBNP Delta [1, 4]: −459 ± 722 | LVEDV Delta ([1]; Cohort A, baseline to Week 12, n 11): 16 ± 21 | Dyspnea score Week 12 ([1]; Cohort A, baseline 4.9 ± 1.6, n 10): 1.7 ± 1.8 | Lateral e′ Week 12 ([1]; Cohort A, n 9): 8.7 ± 1.6 cm/s | E/e′ Week 12 ([1]; Cohort A, n 8): 9.1 ± 2.2 | LA Vol (index) Week 12 ([1]; Cohort A, baseline 30 ± 10, n 10): 31 ± 8 mL/m^2 | LVEDV Week 12 ([1]; Cohort A, baseline 82 ± 24, n 11): 97 ± 24 | NT-proBNP Week 12 ([1]; Cohort A, baseline 930 ± 647, n 10): 454 ± 551 | dyspnea symptom score ([1]; Day 1 to Week 16, dosing through week 12): improves with Compound 1 administration, returning after cessation of therapy; also recorded: improve | resting LVEF versus Compound 1 concentration ([1]; FIG. 8): exposure-dependent decrease | increase in exercise capacity (pVO2) versus change in LVEF ([1]; FIG. 14): greatest in patients with the least decrease in LVEF | oHCM phenotype after cessation (resting LVOT gradient, resting LVEF) ([1]; administration stopped after week 12): returns after cessation of Compound 1 | most robust improvements in pVO2 ([1]; associated with minimal change in resting LVEF): > 3 mL/min/kg | peak VO2 during CPET ([1]; baseline versus week 12): improves CPET metric; also recorded: improve | peak circulatory power during CPET ([1]; baseline versus week 12): improves CPET metric; also recorded: improve | tolerability ([1]; doses up to 20 mg QD): well tolerated | Compound 1 concentration associated with reduction of resting gradient below hemodynamic significance ([1]; plasma): > 225 ng/mL | NT-proBNP levels ([1]; weeks 0, 4, 8 and 12): reduced after 4 weeks of Compound 1 but can rebound with higher exposures | NYHA Class ([1]; with Compound 1 therapy): improve | activity against smooth muscle myosin (smooth muscle myosin): biochemically inactive | proof of mechanism: cardiac contractility [2]: dependent reduction in cardiac contractility
